How the values were obtained:
[1] = tested on: adult female Tetranychus kanzawai from Okayama Prefecture; experiment: Efficacy test against Tetranychus kanzawai (spray on kidney bean plant); type: in vivo; settings: 500 ppm emulsion sprayed
Experimental: Ten adult female Tetranychus kanzawai acarus from Okayama Prefecture were inoculated onto the first leaves of a kidney bean plant planted in a No. 3 pot 7 to 10 days after germination. Next, an emulsion was prepared having the formula indicated in the aforementioned Preparation example 2. This emulsion was diluted with water to a compound concentration of 500 ppm or 125 ppm after which the diluted liquids were sprayed onto the kidney bean plant. The kidney bean plant was then placed in a temperature-controlled room at a temperature of 25° C. and humidity of 65%. The life and death of the adult insects were investigated 3 days after the spraying. In addition, the development from eggs laid to adult was investigated 14 days after the spraying.
The aforementioned test was carried out on the emulsion containing the Compound No. 2-1 at 500 ppm. As a result, the insect mortality rates after 3 days and 14 days for the compound were 90% or higher.

Row | melting point [°C] | SMILES | insect mortality rate after 3 days ([1]; 3 days after spraying) [%] | insect mortality rate after 14 days ([1]; 14 days after spraying) [%]
1 | 164 to 166 | CC(C)(NC(=O)NOc1ccc2ncsc2c1)c1ccccn1 | – | –
2 | – | CCN(Oc1ccc2ncsc2c1)C(=O)N=S(C)(=O)c1ccccc1 (stereo not drawn) [Compound No. 2-1] | ≥ 90 | ≥ 90
